Reference: patent US9247750B2, “Polyenylcyclopropanecarboxylic esters with high insecticidal activity” (Endura S.P.A., priority 2007, dated 2016)

Key:
Aedes aegypti = experiment: Insecticide effectiveness in the vapour phase against mosquitoes, impregnated paper unit in 20 m^3 room (Example 9); type: in vivo; settings: 5 mg/unit; for % mortality 24 h: 24th hour from start of test; for % Knock-down 8 h: at end of 8th hour; for Knock-down time KT10 / Knock-down time KT50 / Knock-down time KT90: average of 3 cages
Protocol: (§1) Test units consisting of a paper support 20 cm×10 cm in size were impregnated with the compound of examples 3, 7 and 8 and, for comparative purposes, with the reference compounds transfluthrin and metofluthrin, at an amount of 5.00 mg/unit for each compound (pure). Using a common laboratory stand, the test unit was placed at a height of about 30 cm from the ground along one side of a 20 m^3 room (L 3.00 m×D 2.49 m×H 2.69 m). In order to homogenize the insecticidal air within the room, a small electric fan was placed on the floor diagonal to the surface of the unit, in the nearest corner at a distance of about 50 cm from the unit. Three metal cages (L 8.4 cm×Ø 8.0 cm×mesh 1.0 mm) for every mosquito species, each containing 20 3-4 day old individuals of mixed sex, were placed along the other three sides of the room, at a height of 1.80 m from the ground and at a distance of 0.45 m from the respective walls. During the test the room was kept closed and temperature and humidity were controlled (T 23-26° C., RH 49-61%). The fan was switched on and left on for 8 continuous hours. The times needed to reach 10%, 50% and 90% insect knock-down (KT10, KT50 and KT90, respectively) were recorded.
(§2) Every 2 hours and up to the 6th hour after the fan was switched on, new cages were introduced containing insects (set of 3 cages for each species).
(§3) At the end of the 8th hour, the percentage of insects knocked down in all the cages was determined, then the insects were removed from the room and transferred into an uncontaminated atmosphere within closed containers containing a sugary solution. The percentage mortality was recorded at the 24th hour from the start of the test.
(§4) The results obtained are summarized in tables 1 and 2 and the data are averages for the 3 cages.

Culex quinquefasciatus = experiment: as above; type: in vivo; settings: 5 mg/unit; for % mortality 24 h: 24th hour from start of test; for % Knock-down 8 h: at end of 8th hour; for Knock-down time KT10 / Knock-down time KT50 / Knock-down time KT90: average of 3 cages
Protocol: as §1, §2, §3, §4

**Q.** Which “% mortality 24 h” value (Aedes aegypti; insect exposure after 0 hours) does the source give for C=CC=C[C@@H]1[C@@H](C(=O)OCc2c(F)c(F)c(COC)c(F)c2F)C1(C)C (mixture of isomers) [Example 8, 2,3,5,6-tetrafluoro-4-methoxymethyl benzyl(1R,3R)-3-((E/Z)-Buta-1,3-dienyl)-2,2-dimethylcyclopropane-1-carboxylate] here?
**A.** 100%

**Q.** And the “% Knock-down 8 h” value (Aedes aegypti; insect exposure after 0 hours)?
**A.** 100%

**Q.** What about the “Knock-down time KT10” value (Aedes aegypti; insect exposure after 0 hours) of the same compound?
**A.** 22 min

**Q.** And the “Knock-down time KT50” value (Aedes aegypti; insect exposure after 0 hours)?
**A.** 31 min

**Q.** What about the “Knock-down time KT90” value (Aedes aegypti; insect exposure after 0 hours) of the same compound?
**A.** 40 min

**Q.** What about the “% mortality 24 h” value (Aedes aegypti; insect exposure after 2 hours) of the same compound?
**A.** 100%

**Q.** What about the “% Knock-down 8 h” value (Aedes aegypti; insect exposure after 2 hours) of the same compound?
**A.** 100%

**Q.** What about the “Knock-down time KT10” value (Aedes aegypti; insect exposure after 2 hours) of the same compound?
**A.** 12 min

**Q.** And the “Knock-down time KT50” value (Aedes aegypti; insect exposure after 2 hours)?
**A.** 29 min

**Q.** What about the “Knock-down time KT90” value (Aedes aegypti; insect exposure after 2 hours) of the same compound?
**A.** 41 min

**Q.** What about the “% mortality 24 h” value (Aedes aegypti; insect exposure after 4 hours) of the same compound?
**A.** 100%

**Q.** What about the “% Knock-down 8 h” value (Aedes aegypti; insect exposure after 4 hours) of the same compound?
**A.** 100%

**Q.** What about the “Knock-down time KT10” value (Aedes aegypti; insect exposure after 4 hours) of the same compound?
**A.** 18 min

**Q.** And the “Knock-down time KT50” value (Aedes aegypti; insect exposure after 4 hours)?
**A.** 32 min

**Q.** And the “Knock-down time KT90” value (Aedes aegypti; insect exposure after 4 hours)?
**A.** 50 min

**Q.** And the “% mortality 24 h” value (Culex quinquefasciatus; insect exposure after 0 hours)?
**A.** 83%

**Q.** What about the “% Knock-down 8 h” value (Culex quinquefasciatus; insect exposure after 0 hours) of the same compound?
**A.** 100%

**Q.** What about the “Knock-down time KT10” value (Culex quinquefasciatus; insect exposure after 0 hours) of the same compound?
**A.** 35 min

**Q.** And the “Knock-down time KT50” value (Culex quinquefasciatus; insect exposure after 0 hours)?
**A.** 44 min

**Q.** And the “Knock-down time KT90” value (Culex quinquefasciatus; insect exposure after 0 hours)?
**A.** 70 min

**Q.** What about the “% mortality 24 h” value (Culex quinquefasciatus; insect exposure after 2 hours) of the same compound?
**A.** 70%

**Q.** What about the “% Knock-down 8 h” value (Culex quinquefasciatus; insect exposure after 2 hours) of the same compound?
**A.** 100%

**Q.** What about the “Knock-down time KT10” value (Culex quinquefasciatus; insect exposure after 2 hours) of the same compound?
**A.** 39 min

**Q.** And the “Knock-down time KT50” value (Culex quinquefasciatus; insect exposure after 2 hours)?
**A.** 50 min

**Q.** What about the “Knock-down time KT90” value (Culex quinquefasciatus; insect exposure after 2 hours) of the same compound?
**A.** 68 min

**Q.** And the “% mortality 24 h” value (Culex quinquefasciatus; insect exposure after 4 hours)?
**A.** 61%

**Q.** What about the “% Knock-down 8 h” value (Culex quinquefasciatus; insect exposure after 4 hours) of the same compound?
**A.** 100%

**Q.** And the “Knock-down time KT10” value (Culex quinquefasciatus; insect exposure after 4 hours)?
**A.** 39 min

**Q.** And the “Knock-down time KT50” value (Culex quinquefasciatus; insect exposure after 4 hours)?
**A.** 53 min

**Q.** What about the “Knock-down time KT90” value (Culex quinquefasciatus; insect exposure after 4 hours) of the same compound?
**A.** 66 min

**Q.** With C=CC=C[C@@H]1[C@@H](C(=O)OCc2coc(Cc3ccccc3)c2)C1(C)C (mixture of isomers) [Example 7, (2-benzyl-4-hydroxymethylfuryl) (1R,3R)-3-((E/Z)-Buta-1,3-dienyl)-2,2-dimethylcyclopropane-1-carboxylate] as the compound, how does the “% mortality 24 h” value (Aedes aegypti; insect exposure after 0 hours) read?
**A.** 79%

**Q.** What about the “% Knock-down 8 h” value (Aedes aegypti; insect exposure after 0 hours) of the same compound?
**A.** 5%

**Q.** What about the “% mortality 24 h” value (Aedes aegypti; insect exposure after 2 hours) of the same compound?
**A.** 79%

**Q.** And the “% Knock-down 8 h” value (Aedes aegypti; insect exposure after 2 hours)?
**A.** 0%

**Q.** What about the “% mortality 24 h” value (Aedes aegypti; insect exposure after 4 hours) of the same compound?
**A.** 65%

**Q.** What about the “% Knock-down 8 h” value (Aedes aegypti; insect exposure after 4 hours) of the same compound?
**A.** 0%

**Q.** And the “% mortality 24 h” value (Culex quinquefasciatus; insect exposure after 0 hours)?
**A.** 70%

**Q.** And the “% Knock-down 8 h” value (Culex quinquefasciatus; insect exposure after 0 hours)?
**A.** 8%

**Q.** What about the “% mortality 24 h” value (Culex quinquefasciatus; insect exposure after 2 hours) of the same compound?
**A.** 35%

**Q.** And the “% Knock-down 8 h” value (Culex quinquefasciatus; insect exposure after 2 hours)?
**A.** 2%

**Q.** And the “% mortality 24 h” value (Culex quinquefasciatus; insect exposure after 4 hours)?
**A.** 23%

**Q.** And the “% Knock-down 8 h” value (Culex quinquefasciatus; insect exposure after 4 hours)?
**A.** 0%
